± gives the expanded uncertainty stated by the source.
Experiment: xn = mol fraction of the nth substance listed
Conditions: Liquid, Vibrating tube method

CCCCCCCCCC [decane] + COC(=O)OC
mass density [kg/m3]
Conditions	100 kPa	10000 kPa	20000 kPa	30000 kPa	40000 kPa
308.15 K, x2 = 0.0676	–	–	–	748.49 ± 0.58	–
308.15 K, x2 = 0.2303	–	–	–	774.52 ± 0.57	–
308.15 K, x2 = 0.2934	–	–	–	786.53 ± 0.56	–
308.15 K, x2 = 0.4055	–	–	–	810.51 ± 0.56	–
308.15 K, x2 = 0.502	–	–	827.62 ± 0.53	835.23 ± 0.55	–
308.15 K, x2 = 0.5476	–	–	840.77 ± 0.53	848.52 ± 0.55	–
308.15 K, x2 = 0.5883	–	–	853.46 ± 0.53	861.27 ± 0.55	–
308.15 K, x2 = 0.665	–	–	880.05 ± 0.54	888.01 ± 0.55	–
308.15 K, x2 = 0.7101	–	–	898.05 ± 0.54	906.21 ± 0.55	–
308.15 K, x2 = 0.7993	–	–	937.83 ± 0.56	946.02 ± 0.56	–
308.15 K, x2 = 0.9062	–	–	998.48 ± 0.58	1006.83 ± 0.59	–
313.15 K, x2 = 0.0676	722.58 ± 0.44	730.76 ± 0.48	738.28 ± 0.52	745.23 ± 0.58	751.65 ± 0.64
313.15 K, x2 = 0.2303	747.1 ± 0.45	755.75 ± 0.48	763.69 ± 0.52	770.99 ± 0.57	777.72 ± 0.61
313.15 K, x2 = 0.2934	758.66 ± 0.46	767.5 ± 0.49	775.54 ± 0.52	782.96 ± 0.56	789.79 ± 0.61
313.15 K, x2 = 0.4055	781.63 ± 0.47	790.74 ± 0.5	799.07 ± 0.52	806.72 ± 0.56	813.78 ± 0.59
313.15 K, x2 = 0.502	805.45 ± 0.48	814.81 ± 0.5	823.33 ± 0.53	831.19 ± 0.55	838.42 ± 0.58
313.15 K, x2 = 0.5476	818.21 ± 0.49	827.67 ± 0.51	836.31 ± 0.53	844.29 ± 0.55	851.66 ± 0.57
313.15 K, x2 = 0.665	856.63 ± 0.51	866.37 ± 0.52	875.3 ± 0.54	883.49 ± 0.55	891.08 ± 0.56
313.15 K, x2 = 0.7101	874 ± 0.52	883.94 ± 0.53	893.08 ± 0.54	901.47 ± 0.55	909.27 ± 0.56
313.15 K, x2 = 0.7993	913.46 ± 0.54	923.44 ± 0.55	932.63 ± 0.55	941.03 ± 0.56	948.81 ± 0.56
313.15 K, x2 = 0.9062	973.48 ± 0.57	983.52 ± 0.58	992.81 ± 0.58	1001.36 ± 0.58	1009.35 ± 0.59
318.15 K, x2 = 0.0676	718.68 ± 0.44	727.04 ± 0.48	734.75 ± 0.53	741.84 ± 0.58	748.36 ± 0.64
318.15 K, x2 = 0.2303	742.9 ± 0.45	751.73 ± 0.48	759.87 ± 0.52	767.35 ± 0.57	774.2 ± 0.62
318.15 K, x2 = 0.2934	754.31 ± 0.46	763.4 ± 0.49	771.65 ± 0.52	779.22 ± 0.57	786.19 ± 0.61
318.15 K, x2 = 0.4055	777.08 ± 0.47	786.45 ± 0.49	794.97 ± 0.53	802.8 ± 0.56	809.98 ± 0.59
318.15 K, x2 = 0.502	800.57 ± 0.48	810.24 ± 0.5	819.01 ± 0.53	827.05 ± 0.55	834.42 ± 0.58
318.15 K, x2 = 0.5476	813.18 ± 0.49	822.96 ± 0.51	831.86 ± 0.53	840 ± 0.55	847.53 ± 0.58
318.15 K, x2 = 0.665	851.25 ± 0.51	861.33 ± 0.52	870.52 ± 0.54	878.91 ± 0.55	886.65 ± 0.56
318.15 K, x2 = 0.7101	868.41 ± 0.52	878.62 ± 0.53	888.03 ± 0.54	896.64 ± 0.55	904.62 ± 0.56
318.15 K, x2 = 0.7993	907.56 ± 0.54	917.9 ± 0.55	927.38 ± 0.55	936.02 ± 0.56	944 ± 0.56
318.15 K, x2 = 0.9062	967.13 ± 0.57	977.56 ± 0.57	987.16 ± 0.58	995.97 ± 0.58	1004.15 ± 0.58
323.15 K, x2 = 0.0676	714.71 ± 0.44	723.36 ± 0.48	731.25 ± 0.53	738.46 ± 0.58	745.15 ± 0.64
323.15 K, x2 = 0.2303	738.81 ± 0.45	747.9 ± 0.48	756.2 ± 0.53	763.83 ± 0.57	770.85 ± 0.62
323.15 K, x2 = 0.2934	749.94 ± 0.46	759.3 ± 0.49	767.8 ± 0.53	775.53 ± 0.57	782.66 ± 0.61
323.15 K, x2 = 0.4055	772.41 ± 0.47	782.1 ± 0.49	790.9 ± 0.53	798.87 ± 0.56	806.24 ± 0.6
323.15 K, x2 = 0.502	795.68 ± 0.48	805.66 ± 0.5	814.72 ± 0.53	822.91 ± 0.56	830.5 ± 0.58
323.15 K, x2 = 0.5476	808.16 ± 0.49	818.26 ± 0.51	827.41 ± 0.53	835.74 ± 0.55	843.43 ± 0.58
323.15 K, x2 = 0.665	845.86 ± 0.51	856.25 ± 0.52	865.73 ± 0.54	874.34 ± 0.55	882.27 ± 0.57
323.15 K, x2 = 0.7101	862.69 ± 0.52	873.27 ± 0.53	882.95 ± 0.54	891.78 ± 0.55	899.97 ± 0.56
323.15 K, x2 = 0.7993	901.72 ± 0.54	912.4 ± 0.54	922.17 ± 0.55	931.08 ± 0.56	939.25 ± 0.56
323.15 K, x2 = 0.9062	960.79 ± 0.57	971.62 ± 0.57	981.53 ± 0.58	990.6 ± 0.58	–
328.15 K, x2 = 0.0676	710.69 ± 0.44	719.66 ± 0.48	727.74 ± 0.53	735.12 ± 0.59	741.93 ± 0.65
328.15 K, x2 = 0.2303	734.47 ± 0.45	743.93 ± 0.48	752.49 ± 0.53	760.25 ± 0.57	767.41 ± 0.63
328.15 K, x2 = 0.2934	745.53 ± 0.46	755.2 ± 0.49	763.94 ± 0.53	771.85 ± 0.57	779.13 ± 0.62
328.15 K, x2 = 0.4055	767.74 ± 0.47	777.74 ± 0.49	786.78 ± 0.53	794.98 ± 0.56	802.5 ± 0.6
328.15 K, x2 = 0.502	790.73 ± 0.48	801.04 ± 0.5	810.36 ± 0.53	818.78 ± 0.56	826.54 ± 0.59
328.15 K, x2 = 0.5476	803.07 ± 0.49	813.56 ± 0.51	822.99 ± 0.53	831.5 ± 0.55	839.36 ± 0.58
328.15 K, x2 = 0.665	840.35 ± 0.51	851.18 ± 0.52	860.94 ± 0.54	869.79 ± 0.55	877.9 ± 0.57
328.15 K, x2 = 0.7101	857.01 ± 0.51	867.93 ± 0.53	877.85 ± 0.54	886.87 ± 0.55	895.22 ± 0.56
328.15 K, x2 = 0.7993	895.68 ± 0.53	906.86 ± 0.54	916.93 ± 0.55	926.1 ± 0.56	934.48 ± 0.56
328.15 K, x2 = 0.9062	954.3 ± 0.56	965.6 ± 0.57	975.83 ± 0.57	985.17 ± 0.58	993.79 ± 0.58

From the NIST ThermoML archive (doi:10.1021/je0342320)
